Experimental data published in patent US20140011822A1, “METHODS AND MATERIALS FOR REDUCING VENOUS STENOSIS FORMATION OF AN ARTERIOVENOUS FISTULA OR GRAFT” (priority 2011, published 2014).

Columns and labels:
NIH 3T3 cells [1] = assay: Proliferation (thymidine incorporation) assay in NIH 3T3 cells, simvastatin; type: cell-based
Description: (§1) One hundred thousand NIH 3T3 cells were treated with simvastatin (1 μM, 5 μM, or 10 μM) or controls and made hypoxic for 24 hours as described elsewhere (Misra et al., J. Vasc. Interv. Radiol., 21:896-902 (2010)).
One hundred thousand NIH 3T3 cells were treated with simvastatin or controls and made hypoxic for 24 hours. Next, they were seeded in a 6-well plate and cultured for 24 hours in DMEM medium. After 20 hours, […] of (^3H) thymidine was added to each well. Four hours later, the cells were washed with chilled PBS, fixed with 100% cold methanol, and collected for measurement of trichloroacetic acid-precipitable for radioactivity. Experiments were repeated three times for each time point.

NIH 3T3 cells [2] = assay: Cell migration (matrigel invasion) assay in NIH 3T3 cells, simvastatin; type: cell-based
Description: as §1
NIH 3T3 cells were synchronized for 24 hours in serum free media. Next, one hundred thousand NIH 3T3 cells were treated with simvastatin or controls and seeded in 8-micron trans-wells that were pre-coated with low growth factor matrigel in a serum free media. The complete media was supplemented under the trans-well and incubated for 6 hours at 37° C. After 6 hours, trans-wells were washed with PBS and fixed with paraformaldehye (4% v/v). Finally, trans-wells were stained with bromophenol (0.1%) solution. The cells from upper side were removed with cotton tip applicators. The cells at bottom side were counted for analysis.

VEGF-A [3] = assay: RT-PCR for VEGF-A in kidneys, simvastatin; type: in vivo, mice
Description: Animals were housed at 22° C. temperature, 41% relative humidity, and 12-/12-hour light/dark cycles. Animals were allowed access to water and food ad libitum. […] Sixty-eight male C57BL/6 mice (Jackson Laboratories, Bar Harbor, Me.) weighing 25-30 grams were used for the present study (FIG. 18). Chronic kidney disease was created by surgical removal of the right kidney accompanied by ligation of the arterial blood supply to the upper pole of the left kidney as described elsewhere (Misra et al., J. Vasc. Interv. Radiol., 21:1255-1261 (2010); see, also, FIG. 18A). Three weeks after nephrectomy, the animals were started on simvastatin (40 mg/kg administered i.p. three times per week) or PBS (equal amount of volume used for simvastatin i.p. controls). Simvastatin was prepared as described elsewhere (Wilson et al., Arterioscler Thromb. Vasc. Biol., 21:122-128 (2001)). […] Serum BUN and creatinine were measured by removing blood from the tail vein at baseline (before nephrectomy), at AVF creation, and at the time of sacrifice. […]
Expression for the gene of interest was determined using RT-PCR analysis as described elsewhere (Misra et al., J. Vasc. Interv. Radiol., 21:1255-1261 (2010)). […]

VEGF-A [4] = assay: RT-PCR for VEGF-A at outflow vein, simvastatin; type: in vivo, mice
Description: (§2) Animals were housed at 22° C. temperature, 41% relative humidity, and 12-/12-hour light/dark cycles. Animals were allowed access to water and food ad libitum. […] Sixty-eight male C57BL/6 mice (Jackson Laboratories, Bar Harbor, Me.) weighing 25-30 grams were used for the present study (FIG. 18). Chronic kidney disease was created by surgical removal of the right kidney accompanied by ligation of the arterial blood supply to the upper pole of the left kidney as described elsewhere (Misra et al., J. Vasc. Interv. Radiol., 21:1255-1261 (2010); see, also, FIG. 18A). Three weeks after nephrectomy, the animals were started on simvastatin (40 mg/kg administered i.p. three times per week) or PBS (equal amount of volume used for simvastatin i.p. controls). Simvastatin was prepared as described elsewhere (Wilson et al., Arterioscler Thromb. Vasc. Biol., 21:122-128 (2001)). A week later, an AVF was created by connecting the right carotid artery to the ipsilateral jugular vein (FIG. 18B; see, also, Misra et al., J. Vasc. Interv. Radiol., 21:1255-1261 (2010) and Yang et al., J. Vasc. Interv. Radiol., 20:946-950 (2009)). Animals were sacrificed at day 7, day 14, and day 28 following AVF placement for real time polymerase chain reaction (RT-PCR) and histomorphometric analyses (FIG. 18C). Serum BUN and creatinine were measured by removing blood from the tail vein at baseline (before nephrectomy), at AVF creation, and at the time of sacrifice. […] These animals were started on simvastatin (40 mg/kg i.p.) or PBS (equal amount of volume i.p.) every other day one week before AVF placement and then sacrificed four weeks after fistula placement for histomorphometric analysis.
The tissue was stored in RNA stabilizing reagent (Qiagen, Gaithersburg, Md.) as per the manufacturer's guidelines. To isolate the RNA, the specimens were homogenized, and total RNA was isolated using RNeasy mini kit (Qiagen) (Misra et al., J. Vasc. Interv. Radiol., 21:1255-1261 (2010); and Yang et al., J. Vasc. Interv. Radiol., 20:946-950 (2009)).
Expression for the gene of interest was determined using RT-PCR analysis as described elsewhere (Misra et al., J. Vasc. Interv. Radiol., 21:1255-1261 (2010)). Commercial PCR primers for the gene of interest were purchased from SA Biosciences (Frederick, Md.).

[5] = test system: outflow vein of arteriovenous fistula; assay: Histomorphometry of outflow vein (neointima, media/adventitia, lumen area, cell density), simvastatin; type: in vivo, mice; details: for Average reduction of media/adventitia area / average increase of lumen vessel area / average reduction of media/adventitia cell density / average reduction of neointima area / average reduction of neointima cell density: vs control
Description: as §2
At euthanasia, all mice were anesthetized, and the arterio-venous fistula was carefully dissected from of the surrounding tissue. Animals were euthanized by use of CO2 asphyxiation, and the outflow veins harvested for RT-PCR or histomorphometric analyses as described elsewhere (Misra et al., Kidney Int., 68:2890-2900 (2005); Misra et al., J. Vasc. Interv. Radiol., 21:1255-1261 (2010); and Misra et al., Am. J. Physiol. Heart Circ. Physiol., 294:H2219-2230 (2008)).
Morphometric analysis was performed as described elsewhere (Misra et al., Kidney Int., 68:2890-2900 (2005); and Misra et al., Am. J. Physiol. Heart Circ. Physiol., 294:H2219-2230 (2008)). Briefly, the outflow vein was sectioned into multiple contiguous 4-μm paraffin embedded sections. Typically, 2 to 3 sections per animal for each group (simvastatin and controls) and time point (day 14 and day 28) were photographed and then quantified using KS 400 (Carl Zeiss, Inc., Thornwood, N.Y.) semiquantitative program.

Q: With `CCC(C)(C)C(=O)O[C@H]1C[C@@H](C)C=C2C=C[C@H](C)[C@H](CC[C@@H]3C[C@@H](O)CC(=O)O3)[C@H]21` [simvastatin] as the compound, how does the “average reduction in proliferative ability” value (NIH 3T3 cells [1]; 5 μM, 24 hours hypoxia) read?
A: Its value is 83%.

Q: And the “average reduction in proliferative ability” value (NIH 3T3 cells [1]; 5 μM, 24 hours normoxia)?
A: The value was 75%.

Q: And the “average reduction in proliferative ability” value (NIH 3T3 cells [1]; 10 μM, 24 hours hypoxia)?
A: The value was 92%.

Q: And the “average reduction in proliferative ability” value (NIH 3T3 cells [1]; 10 μM, 24 hours normoxia)?
A: The value was 94%.

Q: What about the “average reduction of migratory capacity” value (NIH 3T3 cells [2]; 5 μM, 24 hours hypoxia) of the same compound?
A: The value was 47%.

Q: What about the “average reduction of migratory capacity” value (NIH 3T3 cells [2]; 5 μM, 24 hours normoxia) of the same compound?
A: The value was 32%.

Q: And the “average reduction of migratory capacity” value (NIH 3T3 cells [2]; 10 μM, 24 hours hypoxia)?
A: The value was 62%.

Q: What about the “average reduction of migratory capacity” value (NIH 3T3 cells [2]; 10 μM, 24 hours normoxia) of the same compound?
A: Its value is 50%.

Q: What about the “average gene expression of VEGF-A” value (VEGF-A [3]; day 28) of the same compound?
A: Its value is 1±0.02.

Q: And the “Average reduction of VEGF-A gene expression” value (VEGF-A [3]; day 28, vs control)?
A: Its value is 24%.

Q: And the “mean gene expression of VEGF-A” value (VEGF-A [4]; day 7)?
A: The value was 0.58±0.06.

Q: What about the “Average reduction of VEGF-A gene expression” value (VEGF-A [4]; day 7, vs control) of the same compound?
A: Its value is 44%.

Q: What about the “mean gene expression of VEGF-A” value (VEGF-A [4]; day 14) of the same compound?
A: Its value is 0.51±0.1.

Q: And the “Average reduction of VEGF-A gene expression” value (VEGF-A [4]; day 14, vs control)?
A: The value was 49%.

Q: What about the “average area of the media/adventitia” value ([5]; day 14) of the same compound?
A: The value was 147603±4443 μm^2.

Q: What about the “average area of the neointima” value ([5]; day 14) of the same compound?
A: The value was 61864±12401 μm^2.

Q: And the “average cell density of the media/adventitia” value ([5]; day 14)?
A: The value was 3.27±0.33.

Q: And the “average cell density of the neointima” value ([5]; day 14)?
A: The value was 4.6±0.2.

Q: What about the “average lumen vessel area” value ([5]; day 14) of the same compound?
A: Its value is 95051±21583.

Q: What about the “Average reduction of media/adventitia area” value ([5]; day 14) of the same compound?
A: Its value is 43%.

Q: What about the “average increase of lumen vessel area” value ([5]; day 14) of the same compound?
A: The value was 150%.

Q: And the “average reduction of media/adventitia cell density” value ([5]; day 14)?
A: The value was 37%.

Q: What about the “average reduction of neointima area” value ([5]; day 14) of the same compound?
A: Its value is 56%.

Q: What about the “average reduction of neointima cell density” value ([5]; day 14) of the same compound?
A: Its value is 65%.

Q: And the “average area of the neointima” value ([5]; day 28)?
A: The value was 85574±1652.

Q: What about the “average cell density of the media/adventitia” value ([5]; day 28) of the same compound?
A: Its value is 2.85±0.10.

Q: What about the “average cell density of the neointima” value ([5]; day 28) of the same compound?
A: Its value is 4.2±0.2.

Q: What about the “average lumen vessel area” value ([5]; day 28) of the same compound?
A: The value was 162607±34685.

Q: And the “average increase of lumen vessel area” value ([5]; day 28)?
A: Its value is 343%.

Q: And the “average reduction of media/adventitia cell density” value ([5]; day 28)?
A: Its value is 35%.

Q: And the “average reduction of neointima area” value ([5]; day 28)?
A: The value was 45%.

Q: What about the “average reduction of neointima cell density” value ([5]; day 28) of the same compound?
A: Its value is 70%.

Q: And the “Average reduction of media/adventitia area” value ([5]; day 28, not statistically significant (P=0.03))?
A: The value was 32%.

Q: And the “average cell density of the media/adventitia” value ([5]; day 28 normal)?
A: Its value is 1.67±0.1.

Q: What about the “average cell density of the neointima” value ([5]; day 28 normal) of the same compound?
A: Its value is 2.63±0.11.

Q: And the “average reduction of media/adventitia cell density” value ([5]; day 28 normal)?
A: The value was 71%.

Q: What about the “average reduction of neointima cell density” value ([5]; day 28 normal) of the same compound?
A: The value was 61%.

Q: What about the “Average reduction of media/adventitia area” value ([5]; day 28 normal, not statistically significant (P=0.03)) of the same compound?
A: The value was 29%.
